Experimental data published in patent EP1013767A1, “Method of screening for agrochemicals” (AMERICAN CYANAMID COMPANY, priority 1998, dated 2000).
“Also recorded” adds a separate entry of the source.

Columns and labels:
PR genes = conditions: wheat; cited from earlier work
LOX2:Hv:1 = experiment: Northern blot analysis of LOX2:Hv:1 mRNA accumulation in primary leaves of barley; assay type: in vivo, Barley (Hordeum vulgare L.); conditions: for accumulation of LOX transcript: barley seedlings, powdery mildew susceptible and mlo-resistant cultivar, DCINA soil drench 10 mg active ingredient/L soil volume, BTH 1 mM spray; for kinetics of LOX2:Hv:1 transcript accumulation: 45 µM JM compared with 45 µM SA
Protocol: (§1) Barley (Hordeum vulgare L.) mlo-resistant cultivar Salome as well as the susceptible cultivars Pallas and Manchuria were grown as described for example by Hause et al., J. Plant Physiol. 150, 127-132 (1997). Inoculation with conidia of Blumeria graminis f. sp. hordei race A6 (Wiberg, Hereditas 77, 89-148 (1974)) were performed at a density of 10 conidia per mm^2 with the primary leaf of seven-days-old seedlings at the onset of the light period.
(§2) Segments of seven-days-old primary leaves were freshly harvested and either floated on water, freshly prepared (±) JM, or Na-salicylate.
(§3) DCINA (2,6-dichloroisonicotinic acid), formulated as 25 % active ingredient with a wettable powder (WP) carrier (Métraux et al., Advances in molecular genetics of plant microbe interactions. Vol. 1, Kluwer Academic Publishers, Dordrecht, The Netherlands, pp. 432-439 (1991)), was applied to 7-days-old barley seedlings as a soil drench at a final concentration of 10 mg active ingredient/L soil volume. BTH (benzo[1,2,3]-thiadiazole-7-carbothioic acid S-methyl ester) was applied at a concentration of 1 mM by spraying a formulation with WP in distilled water. Controls were treated with WP.
Total RNA was extracted as described for example by Hause et al., Plant Cell Physiol. 37, 641-649 (1996). Northern blot analysis was performed with digoxigenin-Iabelled cDNAs (DIG-High Prime labelling Kit, Boehringer Mannheim) of barley LOX2:Hv:1 (Vörös et al., loc. cit) and barley PR1b (Bryngelsson et al., Mol. Plant-Microbe Int. 7, 267-275 (1994)).

powdery mildew fungus = conditions: barley, against the powdery mildew fungus; cited from earlier work
PR1b = experiment: Northern blot analysis of PR1b mRNA accumulation in barley; assay type: in vivo, Barley (Hordeum vulgare L.); conditions: in response to treatment
Protocol: as §1, §2, §3
Total RNA was extracted as described for example by Hause et al., Plant Cell Physiol. 37, 641-649 (1996). […]

Row | SMILES | activation of PR genes (PR genes) | accumulation of LOX transcript (LOX2:Hv:1) | kinetics of LOX2:Hv:1 transcript accumulation (LOX2:Hv:1) | LOX2:Hv:1 expression (LOX2:Hv:1; treatment with SA, cultivar Salome, leaf segments, 24 hours (Fig. 1)) | activation of SAR (powdery mildew fungus) | PR1b mRNA accumulation (PR1b) | LOX2:Hv:1 induction, BTH compared with DCINA (LOX2:Hv:1; in all experiments) | sensitivity of LOX2:Hv:1 (dose-response curves) (LOX2:Hv:1; JM compared with SA treatment, Fig. 1)
1 | O=C(O)c1cc(Cl)nc(Cl)c1 [DCINA, 2,6-dichloroisonicotinic acid] | strongly activate | accumulation of LOX transcript | – | – | – | – | – | –
2 | O=C(O)c1ccccc1O [SA, salicylic acid] | strongly activate | – | No differences | induced | activated SAR | – | – | –
3 | CSC(=O)c1cccc2nnsc12 [BTH, benzo[1,2,3]-thiadiazole-7-carbothioic acid S-methyl ester] | strongly activate | accumulation of LOX transcript; also recorded: activate LOX | – | – | – | not pathogen related genes like PR1b | stronger induced | –
4 | CCC=CCC1C(=O)CCC1CC(=O)OC (racemic) [JM, jasmonic acid methyl ester] | – | – | No differences | – | – | not found | – | slightly higher sensitivity
